Measurements from patent US20250019769A1, “REPURPOSING DRUGS FOR NON-SMALL CELL LUNG CANCER” (WEST VIRGINIA UNIVERSITY BOARD OF GOVERNORS ON BEHALF OF …, priority 2021, published 2025).
Where two headings read alike, the source gives them in different places.

Legend:
[1] = system: gene expression of CD27, PD1, CTLA4, or PDL1; assay: Pearson correlation of drug-response measurements with gene expression of ICIs in human NSCLC epithelial cell lines; conditions: for correlation of EC50 with CD27 mRNA expression: p<0.05, Pearson's correlation test, NSCLC cell lines (n=79, FIG. 18B)
Description: (§1) The PRISM dataset. was obtained from the DepMap portal (https://depmap.org/portal/download/, PRISM repurposing 19Q4, accessed on 1 Apr. 2021). Carboplatin, cisplatin, docetaxel, erlotinib, etoposide, gefitinib, gemcitabine, paclitaxel (Taxol), pemetrexed, and vinorelbine were commonly used chemotherapeutic drugs in NSCLC treatment, the analysis focused on these ten regiments. Drug activity measurements, including IC50, ln(IC50), EC50, and ln(EC50), were used in the analysis. The available CCLE NSCLC cell lines were divided into three groups by the drug activity measurements: sensitive, resistant, and intermediate.
(§2) Drug activity measurements were generated in the GDSC Project. (https://www.cancerrxgene.org/downloads/bulk_download, accessed on 15 Apr. 2021). IC50 and ln(IC50) were the main metrics used in this analysis. The available CCLE NSCLC cell lines were divided into three groups by the drug activity measurements in the GDSC1/2 datasets, i.e., sensitive, resistant, and intermediate.
RStudio (version 1.4.1106), an integrated development environment for R, was used as the main tool for performing the statistical analyses. A two-tailed, unpaired Student's t-test was used to evaluate the significance of differential expression between two groups. Survival analysis and curves were generated using the Kaplan-Meier method, and log-rank tests were used to assess the difference in survival probability between different groups. The univariate and multivariate Cox regression analyses were used in the prognostic evaluation and curve generation with R packages “survival”, “survminer”, and “ggplot2”. The strength of the linear relationship between two sample groups was measured with Pearson's correlation test. Results in statistical tests were considered significant with a p-value<0.05.
Several targeted therapeutic candidates were identified with CMap.

NSCLC cells = conditions: cited from earlier work
[2] = system: xenograft mouse model of lung cancer; conditions: cited from earlier work
NSCLC [3] = conditions: combination with gefitinib in NSCLC; cited from earlier work
[4] = system: mRNA expression of CD27, PD1, or PDL1; assay: Pearson correlation of drug concentration (PRISM, GDSC1, GDSC2) with mRNA expression of immune checkpoint genes in CCLE NSCLC cell lines; set-up: species or system human; conditions: p<0.05, Pearson's correlation, datasets PRISM, CCLE NSCLC cell lines (n=117)
Description: The growth inhibitory activity of 4,518 drugs was quantified in 578 human cancer cell lines using the PRISM molecular barcoding and multiplexed screening method. The PRISM dataset is available at the Cancer Dependency Map portal (https://depmap.org/portal/download/, accessed on 1 Apr. 2021). Drug responses of 9 commonly used chemotherapeutic regimens in treating NSCLC were included: carboplatin, cisplatin, paclitaxel, docetaxel, gemcitabine, vinorelbine, etoposide, gefitinib, and erlotinib. For each drug, cell lines with IC50 or EC50 value higher than the maximum dose were defined as resistant; cell lines with IC50 or EC50 value lower than the minimum dose were defined as sensitive. The remaining cell lines were divided into groups of resistant, sensitive, or partial response by using the mean±0.5 standard deviation (SD) of the drug activity metrics, including IC50, ln(IC50), EC50, or ln(EC50) values. Cell lines with a drug activity value less than the mean−0.5 SD were defined as sensitive to the drug, and those with a drug activity value between the mean+0.5 SD and the mean−0.5 SD were defined as having a partial response to the drug. Cell lines with a drug activity value greater than the mean+0.5 SD were defined as resistant to the drug. This categorization corresponds to the RECIST 1.1 system (i.e., complete response, partial response, and stable disease/disease progression) in evaluating chemotherapeutic response in solid tumors. Drug screening data was downloaded from Genomics of Drug Sensitivity in Cancer (GDSC) Project (https://www.cancerrxgene.org/downloads/bulk_download, accessed on 15 Apr. 2021). The GDSC Project screened more than 1,000 genetically characterized human cancer cell lines with a wide range of anti-cancer therapeutic agents. Among the commonly used chemotherapeutic regimens in treating NSCLC drugs, […] were found in GDSC1, including cisplatin, docetaxel, erlotinib, etoposide, gefitinib, gemcitabine, pemetrexed, and vinorelbine; 7 were found in GDSC2, including cisplatin, docetaxel, erlotinib, gefitinib, gemcitabine, paclitaxel, and vinorelbine. For each drug, cell lines were defined as resistant, sensitive, or partial response by using the mean±0.5 SD of the IC50 values as described above. Various statistical methods can be utilized. Statistical analysis was performed using Rstudio version 1.4.1106. […] Survival analysis was performed using Kaplan-Meier analysis with the survival package in R. Log-rank tests were used to assess the difference in survival probability from different groups in Kaplan-Meier analyses. The genes in the networks were evaluated with Cox proportional hazard model and Kaplan-Meier analysis. Pearson's correlation test was used to find the relationship be-tween two variables. The multivariate Cox regression analysis was used to build the model of risk-scores. […] Pearson's correlation test was used to find the relationship between two variables. One-tailed two proportion z-test was used to compare if two proportions are the same.

[5] = system: human NSCLC epithelial cell lines; assay: PRISM/GDSC drug response in human NSCLC epithelial cell lines (n=135); type: cell-based; conditions: average in human NSCLC epithelial cell lines (FIG. 18C)
Description: as §1, §2

[6] = system: advanced solid tumors including NSCLC; conditions: single-agent, cited from earlier work
CCLE NSCLC cell lines = assay: PRISM drug screen, growth inhibitory activity in CCLE NSCLC cell lines; type: cell-based; conditions: Homo sapiens, read-out: average IC50 or EC50 value
Description: The growth inhibitory activity of 4,518 drugs was quantified in 578 human cancer cell lines using the PRISM molecular barcoding and multiplexed screening method. The PRISM dataset is available at the Cancer Dependency Map portal (https://depmap.org/portal/download/, accessed on 1 Apr. 2021). Drug responses of 9 commonly used chemotherapeutic regimens in treating NSCLC were included: carboplatin, cisplatin, paclitaxel, docetaxel, gemcitabine, vinorelbine, etoposide, gefitinib, and erlotinib. For each drug, cell lines with IC50 or EC50 value higher than the maximum dose were defined as resistant; cell lines with IC50 or EC50 value lower than the minimum dose were defined as sensitive. The remaining cell lines were divided into groups of resistant, sensitive, or partial response by using the mean±0.5 standard deviation (SD) of the drug activity metrics, including IC50, ln(IC50), EC50, or ln(EC50) values. Cell lines with a drug activity value less than the mean−0.5 SD were defined as sensitive to the drug, and those with a drug activity value between the mean+0.5 SD and the mean−0.5 SD were defined as having a partial response to the drug. Cell lines with a drug activity value greater than the mean+0.5 SD were defined as resistant to the drug. This categorization corresponds to the RECIST 1.1 system (i.e., complete response, partial response, and stable disease/disease progression) in evaluating chemotherapeutic response in solid tumors.
The growth inhibitory activity of 4,518 drugs was quantified in 578 human cancer cell lines using the PRISM molecular barcoding and multiplexed screening method. The PRISM dataset is available at the Cancer Dependency Map portal (https://depmap.org/portal/download/, accessed on 1 Apr. 2021). Drug responses of 9 commonly used chemotherapeutic regimens in treating NSCLC were included in this study: carboplatin, cisplatin, paclitaxel, docetaxel, gemcitabine, vinorelbine, etoposide, gefitinib, and erlotinib. For each drug, cell lines with IC50 or EC50 value higher than the maximum dose were defined as resistant; cell lines with IC50 or EC50 value lower than the minimum dose were defined as sensitive. The remaining cell lines were divided into groups of resistant, sensitive, or partial response by using the mean±0.5 standard deviation (SD) of the drug activity metrics, including IC50, ln(IC50), EC50, or ln(EC50) values. Cell lines with a drug activity value less than the mean−0.5 SD were defined as sensitive to the drug, and those with a drug activity value between the mean+0.5 SD and the mean−0.5 SD were defined as having a partial response to the drug. Cell lines a drug activity value greater than the mean+0.5 SD were defined as resistant to the drug. This categorization corresponds to the RECIST 1.1 system (i.e., complete response, partial response, and stable disease/disease progression) in evaluating chemotherapeutic response in solid tumors.

[7] = system: FRα (FOSL1)-positive advanced solid tumors; conditions: patient derived xenograft models and phase I study; cited from earlier work
NSCLC [8] = conditions: stage IIIB, after chemoradiation, cited from earlier work
resected NSCLC tumors = conditions: neoadjuvant; 9 of 20 resected NSCLC tumors, stages I, II, and IIIA; cited from earlier work
[9] = CCLE NSCLC cell lines, 7-gene network study (FIG. 13C)
[10] = average over CCLE NSCLC cell lines (n=117), 8 doses 0.0006 μM to 10 μM

Which results are given for `Cc1cnc(Nc2ccc(OCCN3CCCC3)cc2)nc1Nc1cccc(S(=O)(=O)NC(C)(C)C)c1` [TG-101348]?
association with PDL1 gene expression ([1]; human NSCLC epithelial cell lines): inhibitory association; PDL1 protein expression (NSCLC cells): reduced PDL1 protein expression; erlotinib-resistance (NSCLC cells): reversed erlotinib-resistance; radiosensitization and EMT blockade [2]: mediated radiosensitization and EMT blockade

Which “effect on pro-apoptosis and anti-migration ability of gefitinib” value (NSCLC [3]) does the source give for `CC(C)c1ccccc1Cc1cc(C(=O)Nc2ccc(S(=O)(=O)c3ccccc3C(C)(C)C)cc2)c(O)c(O)c1O` [TW-37] here?
Its value is “enhanced”.

With `C[C@H]1[C@H](NC(=O)/C(=N\OC(C)(C)C(=O)O)c2csc(N)n2)C(=O)N1S(=O)(=O)O` [aztreonam] as the compound, how does the “correlation of drug concentration [IC50, EC50, ln(IC50), or ln(EC50)] with mRNA expression of CD27, PD1, or PDL1” value [4] read?
The value was “significant negative correlation”.

For `CO[C@@H](C(=O)N1Cc2n[nH]c(NC(=O)c3ccc(N4CCN(C)CC4)cc3)c2C1)c1ccccc1` [danusertib], which EC50 [5] is on record?
The EC50 was < 1 µM.

What about the IC50 [5] of the same compound?
The IC50 was < 1 µM.

What about the “correlation of EC50 with CD27 mRNA expression” value [1] of the same compound?
Its value is “significant negative correlation”.

And the “correlation of EC50 with CD27 mRNA expression” value ([1]; listed as Danusertib)?
Its value is “inhibitory association”.

What about the anti-tumor activity ([6]; common solid tumor types) of the same compound?
The anti-tumor activity was “marginal anti-tumor activity”.

And the tolerability ([6]; phase I and phase II clinical studies)?
The tolerability was “well tolerated”.

With `Cc1nc(Nc2ncc(C(=O)Nc3c(C)cccc3Cl)s2)cc(N2CCN(CCO)CC2)n1` [dasatinib] as the compound, how does the IC50 (CCLE NSCLC cell lines; [9]) read?
The IC50 was ≤ 1 µM.

With `CCN(CC)C(=S)SSC(=S)N(CC)CC` [disulfiram] as the compound, how does the IC50 (CCLE NSCLC cell lines; [10]) read?
Its IC50 is < 1 µM.

For `COc1cccc2c1C(=O)c1c(O)c3c(c(O)c1C2=O)C[C@@](O)(C(=O)CO)C[C@@H]3O[C@H]1C[C@H](N)[C@H](O)[C@H](C)O1` [doxorubicin], which IC50 (CCLE NSCLC cell lines; [10]) is on record?
Its IC50 is < 1 µM.

Which IC50 (CCLE NSCLC cell lines; [9]) does the source give for `CC1CC(OC(=O)c2ccccc2O)CC(C)(C)C1` (stereo not shown) [homosalate] here?
Its IC50 is ≤ 1 µM.

With `CCc1c2c(nc3ccc(OC(=O)N4CCC(N5CCCCC5)CC4)cc13)-c1cc3c(c(=O)n1C2)COC(=O)[C@]3(O)CC` [irinotecan] as the compound, how does the “correlation of drug concentration [IC50, EC50, ln(IC50), or ln(EC50)] with mRNA expression of CD27, PD1, or PDL1” value [4] read?
The value was “significant negative correlation”.

Which IC50 (CCLE NSCLC cell lines; [9]) does the source give for `C[C@]12O[C@H](C[C@]1(O)CO)n1c3ccccc3c3c4c(c5c6ccccc6n2c5c31)CNC4=O` [lestaurtinib] here?
Its IC50 is ≤ 1 µM.

What about the EC50 [5] of the same compound?
Its EC50 is < 1 µM.

What about the IC50 [5] of the same compound?
The IC50 was < 1 µM.

With `O=C1c2c(O)ccc(O)c2C(=O)c2c(NCCNCCO)ccc(NCCNCCO)c21` [mitoxantrone] as the compound, how does the IC50 (CCLE NSCLC cell lines; [10]) read?
The IC50 was < 1 µM.

And the “correlation of drug concentration [IC50, EC50, ln(IC50), or ln(EC50)] with mRNA expression of CD27, PD1, or PDL1” value [4]?
Its value is “significant negative correlation”.

For `OC1(c2ccc(Cl)c(C(F)(F)F)c2)CCN(CCCC(c2ccc(F)cc2)c2ccc(F)cc2)CC1` [penfluridol], which IC50 (CCLE NSCLC cell lines; [9]) is on record?
Its IC50 is ≤ 1 µM.

Which “correlation of drug concentration [IC50, EC50, ln(IC50), or ln(EC50)] with mRNA expression of CD27, PD1, or PDL1” value [4] does the source give for `COc1cc(/C=C/C(=O)N2CCC=CC2=O)cc(OC)c1OC` [piperlongumine] here?
The value was “significant negative correlation”.

With `COc1ccc(C[C@H](N)C(=O)N[C@H]2[C@@H](O)[C@H](n3cnc4c(N(C)C)ncnc43)O[C@@H]2CO)cc1` [puromycin] as the compound, how does the “correlation of drug concentration [IC50, EC50, ln(IC50), or ln(EC50)] with mRNA expression of CD27, PD1, or PDL1” value [4] read?
The value was “significant negative correlation”.

For `CC(/C=C/C(=O)NO)=C\[C@@H](C)C(=O)c1ccc(N(C)C)cc1` [trichostatin A], which “correlation of drug concentration [IC50, EC50, ln(IC50), or ln(EC50)] with mRNA expression of CD27, PD1, or PDL1” value [4] is on record?
The value was “significant negative correlation”.

For MORAb-202, which antitumor response [7] is on record?
The antitumor response was “robust antitumor response”.

With durvalumab: anti-PD-L1 as the compound, how does the “median OS” value (NSCLC [8]; durvalumab arm) read?
The value was “not reached”.

What about the “overall survival HR vs placebo arm” value (NSCLC [8]; phase III randomized trial) of the same compound?
The value was 0.69 (95% CI 0.55-0.86).

Which “correlation of drug concentration [IC50, EC50, ln(IC50), or ln(EC50)] with mRNA expression of CD27, PD1, or PDL1” value [4] does the source give for ivermectin here?
Its value is “significant negative correlation”.

Which pathological response (resected NSCLC tumors) does the source give for nivolumab: PD-1 inhibitor here?
The pathological response was 45%.
